Like-named read-outs stand apart in the source and are kept apart here.
Key:
[1] = tested on: Candida albicans (ATCC 90029); experiment: Time kill study, Example 33 (0 to 5 min); type: cell-based; conditions: 1×MIC
Outline: (§1)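 Performed per CLSI guidelines. Strain suspensions prepared as for MIC testing were mixed with compound solution in equal volume; samples taken at 0 min, 30 sec, 1 min and 5 mins were diluted in test medium, streaked on agar, and colonies counted after 24 to 48 hrs to give viable counts in Log10 CFU/mL.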

[2] = tested on: Staphylococcus aureus (ATCC 29213); experiment: Time kill study, Example 33 (0 to 5 min); type: cell-based; conditions: 1×MIC
Outline: as §1

[3] = tested on: Pseudomonas aeruginosa (ATCC 27853); experiment: Time kill study, Example 33 (0 to 5 min); type: cell-based; conditions: 1×MIC
Outline: as §1

[4] = tested on: Escherichia coli (ATCC 25922); experiment: Time kill study, Example 33 (0 to 5 min); type: cell-based; conditions: 1×MIC
Outline: as §1

[5] = tested on: Escherichia coli; experiment: Extended time kill study, Example 34 (0 to 24 h); type: cell-based
Outline: (§2)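 Strain suspensions prepared as for MIC testing were mixed 1:1 with compound solution at higher multiples of MIC. Samples taken over 0 to 24 h were diluted in test medium and plated on agar, and colonies were counted after 24–48 h incubation.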

[6] = tested on: Staphylococcus aureus; experiment: Extended time kill study, Example 34 (0 to 24 h); type: cell-based
Outline: as §2

[7] = Solubility (Sol., Table 1); type: physicochemical
[8] = tested on: Candida albicans (ATCC 90029); experiment: Minimum inhibitory concentration (MIC) assay, Example 33; type: cell-based; conditions: Candida albicans
Outline: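 Broth microdilution per CLSI guidelines in RPMI 1640; inoculum set to OD530 0.08–0.13, diluted 1:50 then 1:20 to 2× strength and mixed 1:2 with 2-fold serial compound dilutions. Incubated at 35° C; MIC read per CLSI.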

For CCCCCCCCCCCCOC(=O)C(C)NCCO.Cl (centres unmarked) [Nex-61, Dodecyl 2-((2-hydroxyethyl)amino)propanoate hydrochloride], the “Viable counts, Candida albicans time kill study” value ([1]; 0.5 min) was 5.19 Log10 CFU/mL, the “Viable counts, Candida albicans time kill study” value ([1]; 1 min) was 5.36 Log10 CFU/mL and the “Viable counts, Candida albicans time kill study” value ([1]; 5 min) was 5.3 Log10 CFU/mL. For the same compound, the “Viable counts, Candida albicans time kill study” value ([1]; time 0) was 5.23 Log10 CFU/mL, the “Viable counts, Staphylococcus aureus time kill study” value ([2]; 0.5 min) was 6.15 Log10 CFU/mL and the “Viable counts, Staphylococcus aureus time kill study” value ([2]; 1 min) was 6.07 Log10 CFU/mL. For the same compound, the “Viable counts, Staphylococcus aureus time kill study” value ([2]; 5 min) was 5.54 Log10 CFU/mL, the “Viable counts, Staphylococcus aureus time kill study” value ([2]; time 0) was 6.38 Log10 CFU/mL and the “Viable counts, Pseudomonas aeruginosa time kill study” value ([3]; 0.5 min) was 4 Log10 CFU/mL. For the same compound, the “Viable counts, Pseudomonas aeruginosa time kill study” value ([3]; 1 min) was <3.70 Log10 CFU/mL, the “Viable counts, Pseudomonas aeruginosa time kill study” value ([3]; 5 min) was <3.52 Log10 CFU/mL and the “Viable counts, Pseudomonas aeruginosa time kill study” value ([3]; time 0) was 5.71 Log10 CFU/mL. The “Viable counts, Escherichia coli time kill study” value ([4]; 0.5 min) was 5.54 Log10 CFU/mL, the “Viable counts, Escherichia coli time kill study” value ([4]; 1 min) was 5.61 Log10 CFU/mL and the “Viable counts, Escherichia coli time kill study” value ([4]; 5 min) was 4.9 Log10 CFU/mL. The “Viable counts, Escherichia coli time kill study” value ([4]; time 0) was 5.78 Log10 CFU/mL, the “Viable counts, Escherichia coli time kill study” value ([5]; 1 × MIC, 1 h) was 1.70 Log10 CFU/mL and the “Viable counts, Escherichia coli time kill study” value ([5]; 1 × MIC, 2 h) was 1.60 Log10 CFU/mL. For the same compound, the “Viable counts, Escherichia coli time kill study” value ([5]; 1 × MIC, 4 h) was 3.16 Log10 CFU/mL, the “Viable counts, Escherichia coli time kill study” value ([5]; 1 × MIC, 6 h) was 4.38 Log10 CFU/mL and the “Viable counts, Escherichia coli time kill study” value ([5]; 1 × MIC, 24 h) was 7.75 Log10 CFU/mL. The “Viable counts, Escherichia coli time kill study” value ([5]; 1×MIC, time 0) was 5.08 Log10 CFU/mL, the “Viable counts, Escherichia coli time kill study” value ([5]; 2 × MIC, 1 h) was <1 Log10 CFU/mL and the “Viable counts, Escherichia coli time kill study” value ([5]; 2 × MIC, 2 h) was <1 Log10 CFU/mL. The “Viable counts, Escherichia coli time kill study” value ([5]; 2 × MIC, 4 h) was <1 Log10 CFU/mL, the “Viable counts, Escherichia coli time kill study” value ([5]; 2 × MIC, 6 h) was <1 Log10 CFU/mL and the “Viable counts, Escherichia coli time kill study” value ([5]; 2 × MIC, 24 h) was <1 Log10 CFU/mL. The “Viable counts, Escherichia coli time kill study” value ([5]; 2 × MIC, time 0) was 5.03 Log10 CFU/mL, the “Viable counts, Escherichia coli time kill study” value ([5]; 4 × MIC, 1 h) was <1 Log10 CFU/mL and the “Viable counts, Escherichia coli time kill study” value ([5]; 4 × MIC, 2 h) was <1 Log10 CFU/mL. The “Viable counts, Escherichia coli time kill study” value ([5]; 4 × MIC, 4 h) was <1 Log10 CFU/mL, the “Viable counts, Escherichia coli time kill study” value ([5]; 4 × MIC, 6 h) was <1 Log10 CFU/mL and the “Viable counts, Escherichia coli time kill study” value ([5]; 4 × MIC, 24 h) was <1 Log10 CFU/mL. The “Viable counts, Escherichia coli time kill study” value ([5]; 4 × MIC, time 0) was 5.05 Log10 CFU/mL, the “Viable counts, Staphylococcus aureus time kill study” value ([6]; 1 × MIC, 1 h) was 5 Log10 CFU/mL and the “Viable counts, Staphylococcus aureus time kill study” value ([6]; 1 × MIC, 2 h) was <3 Log10 CFU/mL. For the same compound, the “Viable counts, Staphylococcus aureus time kill study” value ([6]; 1 × MIC, 4 h) was <3 Log10 CFU/mL, the “Viable counts, Staphylococcus aureus time kill study” value ([6]; 1 × MIC, 6 h) was <3 Log10 CFU/mL and the “Viable counts, Staphylococcus aureus time kill study” value ([6]; 1 × MIC, 24 h) was <1 Log10 CFU/mL. The “Viable counts, Staphylococcus aureus time kill study” value ([6]; 1×MIC, time 0) was 6.14 Log10 CFU/mL, the “Viable counts, Staphylococcus aureus time kill study” value ([6]; 2 × MIC, 1 h) was <3 Log10 CFU/mL and the “Viable counts, Staphylococcus aureus time kill study” value ([6]; 2 × MIC, 2 h) was <3 Log10 CFU/mL. The “Viable counts, Staphylococcus aureus time kill study” value ([6]; 2 × MIC, 4 h) was <3 Log10 CFU/mL, the “Viable counts, Staphylococcus aureus time kill study” value ([6]; 2 × MIC, 6 h) was <3 Log10 CFU/mL and the “Viable counts, Staphylococcus aureus time kill study” value ([6]; 2 × MIC, 24 h) was <1 Log10 CFU/mL. For the same compound, the “Viable counts, Staphylococcus aureus time kill study” value ([6]; 2 × MIC, time 0) was 6.20 Log10 CFU/mL, the “Viable counts, Staphylococcus aureus time kill study” value ([6]; 4 × MIC, 1 h) was <3 Log10 CFU/mL and the “Viable counts, Staphylococcus aureus time kill study” value ([6]; 4 × MIC, 2 h) was <3 Log10 CFU/mL. The “Viable counts, Staphylococcus aureus time kill study” value ([6]; 4 × MIC, 4 h) was <3 Log10 CFU/mL, the “Viable counts, Staphylococcus aureus time kill study” value ([6]; 4 × MIC, 6 h) was <3 Log10 CFU/mL and the “Viable counts, Staphylococcus aureus time kill study” value ([6]; 4 × MIC, 24 h) was <1 Log10 CFU/mL. For the same compound, the “Viable counts, Staphylococcus aureus time kill study” value ([6]; 4 × MIC, time 0) was 6.18 Log10 CFU/mL, the Sol. [7] was 40% and the MIC ([8]; ATCC90029, Table 19 summary, read-out: MIC) was 12.5 µg/mL. It also gave an MIC ([8]; ATCC90029, n = 1, read-out: MIC Candida albicans) of 12.5 µg/mL and an MIC ([8]; ATCC90029, n = 2, read-out: MIC Candida albicans) of 12.5 µg/mL.

From patent publication US20140357713A1, “ANTIMICROBIAL COMPOUNDS AND METHODS OF USE” (NexMed Holdings, Inc., priority 2012, published 2014)
